Laboratory results from patent publication US20230172923A1, “METHODS OF TREATING CYTOKINE-RELATED ADVERSE EVENTS” (BRISTOL-MYERS SQUIBB COMPANY, priority 2020, published 2023).
Entries after “also recorded” stand apart in the source; their conditions may differ.

Experiments:
Format in all cases: cell-based, human
[1] = tested on: IL-6; experiment: LPS-stimulated PBMC cytokine production, multiplex cytokine analysis: IL-6; conditions: Homo sapiens, PBMC, PBMC 2×10^6 cells/ml, compound 1 hour, then 1 ng/ml LPS 18 hours
Protocol: Peripheral blood mononuclear cells (PBMCs) were isolated from the blood of healthy human donors by Ficoll cell separation. […] Supernatant samples were subjected to multiplex cytokine analysis (Luminex IS100 instrument) to quantify secreted levels of IL-6, IL-8, IL1-beta (IL-1β), GM-CSF, MDC, MIP-1alpha (MIP-1α), MIP-1beta (MIP-1β) and TNF-alpha (TNF-α) (see e.g. FIGS. 7A-C). IC50 (half maximal inhibitory concentration) values were calculated to measure the potency of each IMiD compound in inhibiting LPS-stimulated secretion of each cytokine (see Table 25).

[2] = tested on: IL-6; experiment: CC-93269-induced IL-6 secretion, co-culture of PBMCs and K562-BCMA cells (MSD); conditions: 24 hours; for secretion of IL-6 associated with CC-93269 activity, PBMCs + K562-BCMA: pre-treatment 1000 nM lenalidomide, 100 nM pomalidomide, 10 nM iberdomide or 1 nM Compound 1, T-cells to target cells 5:1
Protocol: (§1) Fresh PBMCs were isolated from healthy volunteers, the percentage of CD3+ T-cells (total) was quantified by flow cytometry, and the PBMCs were treated with 1 nM Compound 1 (CC-92480) or control DMSO overnight. The next morning, target cells (K562-BCMA, which overexpress surface BCMA at a very high level) or control cells (K562-MCB, no BCMA expression) were added to the wells at a ratio of 5:1, T-cells to target cells, followed by addition of CC-93269 at the indicated concentrations. At 6-, 24- and 48-hours post-incubation, the cell culture media was collected and levels of IL-6 in the supernatant were assessed using an MSD assay.
The circles indicate independent donors and the bars indicate median values; not all donors are shown because a data cut-off for the bottom ~10% of IL-6 concentrations, below 200 pg/ml, was used to eliminate small changes that could skew the result and to increase confidence in results.
as §1, with “the indicated concentrations of IMiD/CELMoD agents” for “1 nM Compound 1 (CC-92480)”, “level)” for “level) or control cells (K562-MCB, no BCMA expression)”, “24 hours” for “6-, 24- and 48-hours”
Fresh PBMCs were isolated from the blood (buffy coat) of healthy human volunteers by Ficoll based cell separation. The percentage of CD3+ T-cells (total) in the PBMCs was quantified by flow cytometry. The isolated PBMCs were seeded in 12-well plates at a concentration of 1.5×10^6 cells/ml and treated with 1 nM Compound 1 (CC-92480), 1000 nM lenalidomide, 100 nM pomalidomide, 10 nM iberdomide, or control DMSO overnight (~17 hours).
After overnight incubation, target K562-BCMA cells (overexpress surface BCMA at a very high level) or control K562-MCB cells (no BCMA expression) were added to the wells at a ratio of 5:1, T-cells to target cells. K562-BCMA and K562-MCB are an isogenic pair that are derived from a chronic myelogenous leukemia (CML,) cell line. CC-93269 was added to the co-culture at various concentrations and incubated. CC-93269 is an anti-BCMA anti-CD3 bispecific T cell-engaging antibody and is also referred to herein as 42-TCBcv.
At 6, 24 and 48 hours post-incubation, the cell culture media was collected from all samples, spun down at 300 g for 5 minutes to remove cells and the supernatant was subjected to cytokine analysis to quantify secreted levels of IL-6 using an MSD assay.

[3] = tested on: NCI-H929 cells; experiment: CC-93269 mediated cytotoxicity assay with chronically stimulated T-cells, NCI-H929 target cells (IncuCyte); conditions: anti-CD3/CD28 7 days with 100 nM pomalidomide, 10 nM iberdomide or 1 nM CC-92480; CC-93269 47 pM; E:T 1:4
Protocol: Cell growth kinetics of A) NCI-H929 and B) OPM-2 cells in CC-93269 (47 pM) cytotoxicity assays on the IncuCyte® S3 Live-Cell Analysis System. Healthy donor T-cells were used as effector cells with or without chronic stimulation with anti-CD3/CD28 (7 days) in the presence of DMSO or CM agents (100 nM Pomalidomide, 10 nM CC-220 or 1 nM CC-92480). T-cells and NCI-H929 cells were co-cultured at E:T ratios of 1:4 (NCI-H929) or 1:2 (OPM-2). […] In contrast, prior exposure to CM agents prevented functional TBMS cell exhaustion and CC-93269 activity was similar or better to those observed with freshly thawed T-cells. Values shown represent the mean ± standard deviation of AUC values of 2-3 replicates from the same experiment.
To evaluate the effects of Cereblon modulating (CM) agents on T-cell function after chronic stimulation (i.e. mimicking T cell exhaustion), CD3+ enriched healthy donor T-cells were stimulated with anti-CD3/CD28 in the presence of DMSO (control), 100 nM pomalidomide, 10 nM iberdomide (CC-220) or 1 nM Compound 1 (CC-92480) for 7 days. Prolonged and repetitive anti-CD3/CD28 stimulation of T-cells results in functional T-cell exhaustion in vitro.
The chronically stimulated T-cells were then used in CC-93269 mediated cytotoxicity assays with NCI-H929 or OPM-2 multiple myeloma (MM) target cells. The T-cells were washed to remove compounds, and mixed with fluorescently labelled MM cell lines (NCI-H929, OPM-2) at optimized effector-to-target (E:T) ratios (1:2 or 1:4) in the presence of fixed concentrations of CC-93269 (47 pM). Freshly thawed T-cells (i.e. non-exhausted T-cells) from the same donor were used as control effector cells. In this experimental cytotoxicity assay setup, the number of target cells was continuously monitored using the IncuCyte® S3 Live-Cell Analysis System for a minimum of 10 days. Cell culture supernatants were taken from wells from subsequent CC-93269 mediated cytotoxicity assays at 3 days after mixing with MM target cells. CD3+ T cells from 2 or 3 independent healthy donors were tested for each MM cell line.

Row | IC50 [1] [µM] | Structure (SMILES) | secretion of IL-6 associated with CC-93269 activity, PBMCs + K562-BCMA [2] | cytolytic function of chronically stimulated T-cells in CC-93269-directed killing of NCI-H929 cells [3] | median reduction in IL-6 levels relative to DMSO control ([2]; 1 nM Compound 1 pre-treatment, 10 ng/ml CC-93269, PBMCs from 15 healthy donors) | IL-6 secretion at CC-93269 concentrations up to 10,000 ng/mL, PBMCs + K562-BCMA ([2]; Compound 1 pre-treatment)
1 | 0.059 | Nc1cccc2c1C(=O)N(C1CCC(=O)NC1=O)C2=O (stereo not drawn) [Pomalidomide, 4-amino-2-(2,6-dioxopiperidine-3-yl)isoindoline-1,3-dione] | diminished/attenuated; also recorded: suppressed | beneficial effects on the cytolytic function of T-cells |  | 
2 | 1.2 | Nc1cccc2c1CN(C1CCC(=O)NC1=O)C2=O (stereo not drawn) [Lenalidomide, 3-(4-amino-1-oxo-2,3-dihydro-1H-isoindol-2-yl) piperidine-2,6-dione] | diminished/attenuated; also recorded: suppressed |  |  | 
3 | 0.0038 | O=C1CC[C@H](N2Cc3c(OCc4ccc(CN5CCOCC5)cc4)cccc3C2=O)C(=O)N1 [Iberdomide, (S)-3-(4-((4-(morpholinomethyl)benzyl)oxy)-1-oxoisoindolin-2-yl)piperidine-2,6-dione] | diminished/attenuated; also recorded: suppressed | beneficial effects on the cytolytic function of T-cells |  | 
4 |  | N#Cc1ccc(N2CCN(Cc3ccc(COc4cccc5c4CN(C4CCC(=O)NC4=O)C5=O)cc3)CC2)c(F)c1 (stereo not drawn) [Compound 1, 4-(4-(4-(((2-(2,6-dioxopiperidin-3-yl)-1-oxoisoindolin-4-yl)oxy)methyl)benzyl)piperazin-l-yl)-3-fluorobenzonitrile] | diminished/attenuated; also recorded: suppressed | beneficial effects on the cytolytic function of T-cells | about two-fold | suppresses
